Patent US8722910B2, “Diyne compositions” (Evolva AG, priority 2009, dated 2014)
Values after ≈ are worked out from the molar mass of the structure shown.

Key:
[1] = In vitro Mammalian Cell Cytotoxicity; assay type: cell-based; conditions: African green monkey, Vero cells
[2] = tested on: M. gallinae; test: In vitro antifungal activity vs. dermatophytes (MIC/MFC); assay type: cell-based; conditions: M. gallinae (n = 1)
[3] = tested on: Malassezia furfur; test: In vitro antifungal activity vs. yeasts (MIC/MFC); assay type: cell-based; conditions: Malassezia furfur (n = 1)
[4] = tested on: Candida albicans; test: In vitro antifungal activity vs. yeasts (MIC/MFC); assay type: cell-based; conditions: Candida albicans (n = 8)
[5] = tested on: Escherichia coli 700; test: In vitro Antibacterial Activity; assay type: cell-based
[6] = tested on: M. cookie; test: In vitro antifungal activity vs. dermatophytes (MIC/MFC); assay type: cell-based; conditions: M. cookie (n = 1)
[7] = tested on: C. lusitaniae; test: In vitro antifungal activity vs. yeasts (MIC/MFC); assay type: cell-based; conditions: Clavispora lusitaniae, C. lusitaniae (n = 1)
[8] = tested on: C. glabrata; test: In vitro antifungal activity vs. yeasts (MIC/MFC); assay type: cell-based; conditions: Nakaseomyces glabratus, C. glabrata (n = 1)
[9] = tested on: (1,3)β-Glucan Synthase; test: Inhibition of fungal cell wall synthesis enzymes; assay type: biochemical
From the text: (§1) Specific inhibitors of each enzyme served as positive controls (Cilofungin, a β-glucan synthase inhibitor and nikkomycin Z, a chitin synthase inhibitor).

[10] = tested on: Chitin Synthase; test: Inhibition of fungal cell wall synthesis enzymes; assay type: biochemical
From the text: as §1

[11] = tested on: Trichophyton mentagrophytes; test: Guinea pig skin infection, topical dosing; assay type: in vivo; conditions: guinea pigs
Description: The efficacy of compound III″ in skin infections of small mammals was shown in guinea pigs infected with Trichophyton mentagrophytes on abrased skin. Compound III″ was administered topically at 0.1% or 1% once daily for seven days. Fungal burden decreased by 82% and 98% respectively, compared to the untreated control (see FIG. 13 showing topical fungal burden as determined by culture positive hair removed from the site of infection).

[12] = tested on: T. terrestre; test: In vitro antifungal activity vs. dermatophytes (MIC/MFC); assay type: cell-based; conditions: T. terrestre (n = 1)
[13] = tested on: C. albicans; test: Time course of the fungicidal effect; assay type: cell-based; conditions: after 3 hours of incubation
From the text: Samples were removed periodically, filtered, washed and plated onto nutrient agar.

[14] = Aqueous solubility (equilibrated 25° C., 24 hours, HPLC); assay type: physicochemical; conditions: water, thermodynamic from solid
Description: The potassium salt was furthermore submitted to a solubility determination. Aqueous solubility was determined by suspending sufficient compound in water to give a maximum final concentration of ≧100 mg.m1-1 of the parent free-form of the compound. The suspension was equilibrated at 25° C. for 24 hours then the pH was measured. The suspension was then filtered through a glass fibre C filter into a 96 well plate. The filtrate was then diluted by a factor of 101. Quantification was by HPLC with reference to a standard solution of approximately 0.1 mg.ml-1. in DMSO. Different volumes of the standard, diluted and undiluted sample solutions were injected. The solubility was calculated using the peak areas determined by integration of the peak found at the same retention time as the principal peak in the standard injection. Analysis was performed on an Agilent HP1100 series system equipped with a diode array detector and using ChemStation software vB.02.01-SR1.

[15] = GVS moisture sorption; assay type: physicochemical; conditions: 25° C.
Description: Sorption isotherms were obtained using a Hiden IGASorp moisture sorption analyser, controlled by CFRSorp software. The sample temperature was maintained at 25° C. by a Huber re-circulating water bath. The humidity was controlled by mixing streams of dry and wet nitrogen, with a total flow rate of 250 ml.min-1. The relative humidity (RH) was measured by a calibrated Vaisala RH probe (dynamic range of 0-95% RH), located near the sample. The weight change, (mass relaxation) of the sample as a function of % RH was constantly monitored by the microbalance (accuracy ±0.001 mg). Typically 10-20 mg of sample was placed in a tared mesh stainless steel basket under ambient conditions. The sample was loaded and unloaded at 40% RH and 25° C. (typical
room conditions). A moisture sorption isotherm was performed. The software uses a least squares minimisation procedure together with a model of the mass
relaxation, to predict an asymptotic value. The measured mass relaxation value must be within 5% of that predicted by the software, before the next % RH value is selected. The sample was recovered after completion of the isotherm and re-analysed by XRPD.

[16] = tested on: OLE1; test: OLE1 expression by real time PCR; assay type: cell-based, S. cerevisiae
Description: The expression of OLE1 was determined by real time PCR 10, 60, 120 and 240 min after compound addition (Knechtle, P. and Greve, K., 2009). OLE1 transcript levels were calibrated to the expression of the tubulin gene (TUB1) and normalized to the OLE1 expression at 10 min without compound addition (FIG. 17(a)).
The expression of the OLE1 gene was determined by real time PCR 10, 60, 120 and 240 min for the conditions a.-e., as indicated in Table 3 above. OLE1 transcript levels were calibrated to the expression of the tubulin gene (TUB1) and normalized to the OLE1 expression at 10 min without compound addition. See FIG. 17a showing time dependent expressions of OLE1 in response to compound IV″. Conditions a.-e. are listed in Table 3 above, numbers indicate time intervals in minutes. Expressions of OLE1 are given as multiples of the expression at 10 min, condition a. […] 10 μg/ml oleic acid compensated for the OLE1 expression increase caused by 1 μg/ml compound IV alone. Compound IV″ dependent up-regulation of OLE1 expression thus confirms that compound IV″ is acting as an inhibitor of the Ole1 protein. The antagonistic effect of oleic acid found in the susceptibility assays, is reflected mechanistically in this experiment by a down-regulation of the target Ole1 protein through oleic acid.

[17] = 90% inhibition endpoint, read-out: MIC

O=C(O)CCCCCCC/C=C\C#CC#Cc1ccco1 [Compound III″]
CC50 [1]: 46000 ng/mL (≈ 162 µM)
MIC ([2]; 96 h, 35° C., 4 days): < 0.06 ng/mL
MFC [2]: 4000 ng/mL (≈ 14.1 µM)
MIC90/MIC range 48 h ([2]; 48 h): <0.06 ng/mL
MFC [3]: < 0.06 ng/mL
MIC [3, 17]: < 0.06 ng/mL
MFC [4]: < 0.06 ng/mL
MIC ([4]; 90% inhibition endpoint): < 0.06 ng/mL
MIC90 [5]: > 200000 ng/mL
MIC ([6]; 96 h, 35° C., 4 days): 1000 ng/mL (≈ 3.52 µM)
MFC [6]: 2000 ng/mL (≈ 7.03 µM)
MIC90/MIC range 48 h ([6]; 48 h): 1000 ng/mL (≈ 3.52 µM)
MFC [7]: < 0.06 ng/mL
MIC [7, 17]: < 0.06 ng/mL
MFC [8]: 500 ng/mL (≈ 1.76 µM)
MIC ([8]; 90% inhibition endpoint): 8 ng/mL (≈ 0.0281 µM)
% Inhibition, (1,3)β-Glucan Synthase ([9]; 10 μg/ml): 0%
% Inhibition, (1,3)β-Glucan Synthase ([9]; 100 μg/ml): 73%
% Inhibition, (1,3)β-Glucan Synthase ([9]; 400 μg/ml): 90%
% Inhibition, Chitin Synthase ([10]; 10 μg/ml): 16%
% Inhibition, Chitin Synthase ([10]; 100 μg/ml): 85%
% Inhibition, Chitin Synthase ([10]; 500 μg/ml): 97%
concentrations at which the enzymes were inhibited ([10]; chitin synthase and β-glucan synthase): > 100 µg/mL
decrease of fungal burden (culture positive hair) ([11]; topically 0.1% once daily for seven days): 82%
decrease of fungal burden (culture positive hair) ([11]; topically 1% once daily for seven days): 98%
MIC ([12]; 96 h, 35° C., 4 days): < 0.06 ng/mL
MFC [12]: 16000 ng/mL (≈ 56.3 µM)
MIC90/MIC range 48 h ([12]; 48 h): <0.06 ng/mL
reduction in C. albicans CFUs [13]: > 3 log

O=C([O-])CCCCCCC/C=C\C#CC#Cc1ccco1.[K+] [Compound IV″, potassium (Z)-14-(furan-2-yl)tetradeca-9-en-11,13-diynoate]
solubility at 24 h [14]: > 96.5 mg/mL
moisture uptake behaviour ([15]; GVS): takes up very little moisture until it reaches approximately 70-80% RH
moisture uptake in weight ([15]; at 90% RH): 28%
increase of the expression level of OLE1 ([16]; 1 μg/ml, 10-240 min): 3-5 fold
increase of the expression level of OLE1 ([16]; 1 μg/ml, at 120 min): 4.9 fold
increase of the expression level of OLE1 ([16]; 10 μg/ml, 10-240 min): 7-19 fold
increase of the expression level of OLE1 ([16]; 10 μg/ml, at 120 min): 18.7 fold
